Among the data in patent publication US11053241B2, “TYK2 inhibitors and uses thereof” (Nimbus Lakshmi, Inc., priority 2018, dated 2021) are Kd values, retold here.

Where only a bound is given, the exact number is not on record here.

Sequence of human TYK2 (JH2domain-pseudokinase) (P29597 556-888): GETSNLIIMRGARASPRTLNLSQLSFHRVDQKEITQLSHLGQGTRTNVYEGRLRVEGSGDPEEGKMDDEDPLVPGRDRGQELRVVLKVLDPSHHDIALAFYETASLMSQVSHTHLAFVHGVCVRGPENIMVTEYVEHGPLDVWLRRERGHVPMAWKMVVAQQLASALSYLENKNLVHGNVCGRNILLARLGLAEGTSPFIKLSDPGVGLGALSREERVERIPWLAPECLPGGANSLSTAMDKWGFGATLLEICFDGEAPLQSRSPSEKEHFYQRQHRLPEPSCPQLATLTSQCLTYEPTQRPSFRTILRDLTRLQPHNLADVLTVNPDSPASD

This assay has as its target human TYK2 (JH2domain-pseudokinase) (Homo sapiens (Human), UniProt P29597). Description: TYK2 JH2 Domain Binding Assay (KINOMEscan). The following applies: 11-point 3-fold dilution, top concentration 30,000 nM, duplicate. The method, then:
Binding constants for compounds of the present invention against the JH2 domain were determined by the following protocol for a KINOMEscan® assay (DiscoveRx). A fusion protein of a partial length construct of human TYK2 (JH2domain-pseudokinase) (amino acids G556 to D888 based on reference sequence NP_003322.3) and the DNA binding domain of NFkB was expressed in transiently transfected HEK293 cells. From these HEK 293 cells, extracts were prepared in M-PER extraction buffer (Pierce) in the presence of Protease Inhibitor Cocktail Complete (Roche) and Phosphatase Inhibitor Cocktail Set II (Merck) per manufacturers' instructions. The TYK2(JH2domain-pseudokinase) fusion protein was labeled with a chimeric double-stranded DNA tag containing the NFkB binding site (5′-GGGAATTCCC-3′) fused to an amplicon for qPCR readout, which was added directly to the expression extract (the final concentration of DNA-tag in the binding reaction is 0.1 nM).
Streptavidin-coated magnetic beads (Dynal M280) were treated with a biotinylated small molecule ligand for 30 minutes at room temperature to generate affinity resins for the binding assays. The liganded beads were blocked with excess biotin and washed with blocking buffer (SeaBlock (Pierce), 1% BSA, 0.05% Tween 20, 1 mM DTT) to remove unbound ligand and to reduce nonspecific binding.
The binding reaction was assembled by combining 16 μl of DNA-tagged kinase extract, 3.8 μl liganded affinity beads, and 0.18 μl test compound (PBS/0.05% Tween 20/10 mM DTT/0.1% BSA/2 μg/ml sonicated salmon sperm DNA). Extracts were used directly in binding assays without any enzyme purification steps at a ≥10,000-fold overall stock dilution (final DNA-tagged enzyme concentration <0.1 nM). Extracts were loaded with DNA-tag and diluted into the binding reaction in a two step process. First extracts were diluted 1:100 in 1× binding buffer (PBS/0.05% Tween 20/10 mM DTT/0.1% BSA/2 μg/ml sonicated salmon sperm DNA) containing 10 nM DNA-tag. This dilution was allowed to equilibrate at room temperature for 15 minutes and then subsequently diluted 1:100 in 1× binding buffer. All reactions were performed in polypropylene 384-well plates. Each was a final volume of 0.02 mL. Assays were incubated with shaking for 1 hour at room temperature. Then the beads were pelleted and washed with wash buffer (1×PBS, 0.05% Tween 20) to remove displaced kinase and test compound. The washed based were re-suspended in elution buffer (1×PBS, 0.05% Tween 20, 0.5 μM non-biotinylated affinity ligand) and incubated at room temperature with shaking for 30 minutes. The kinase concentration in the eluates was measured by qPCR. qPCR reactions were assembled by adding 2.5 μL of kinase eluate to 7.5 μL of qPCR master mix containing 0.15 μM amplicon primers and 0.15 μM amplicon probe. The qPCR protocol consisted of a 10 minute hot start at 95° C., followed by 35 cycles of 95° C. for 15 seconds, 60° C. for 1 minute.
Test compounds were prepared as 111× stocks in 100% DMSO. Kd values were determined using an 11-point 3-fold compound dilution series with three DMSO control points. All compounds for Kd measurements are distributed by acoustic transfer (non-contact dispensing) in 100% DMSO. The compounds were then diluted directly into the assays such that the final concentration of DMSO was 0.9%. The Kd values were determined using a compound top concentration of 30,000 nM. Kd measurements were performed in duplicate.
Binding constants (Kds) were calculated with a standard dose-response curve using the Hill equation: […]
The Hill Slope was set to −1. Curves were fitted using a non-linear least square fit with the Levenberg-Marquardt algorithm (Levenberg, K., A method for the solution of certain non-linear problems in least squares, Q. Appl. Math. 2, 164-168 (1944)).
Molecule `CNC(=O)c1cnc(NC(=O)C2CC2)c2[nH]c(-c3ccc(-c4nccn4C)cc3OC3CC3)cc12` [Compound I-57, 7-(cyclopropanecarboxamido)-2-(2-cyclopropoxy-4-(1-methyl-1H-imidazol-2-yl)phenyl)-N-methyl-11H-pyrrolo[2,3-c]pyridine-4-carboxamide] displayed a Kd of 1 to 10 nM. `CNC(=O)c1cnc(NC(=O)C2CC2)c2[nH]c(-c3cccn(C4CCCOC4)c3=O)cc12` (stereo not drawn) [Compound I-43, 7-(cyclopropanecarboxamido)-N-methyl-2-(2-oxo-1-(tetrahydro-2H-pyran-3-yl)-1,2-dihydropyridin-3-yl)-1H-pyrrolo[2,3-c]pyridine-4-carboxamide]: the dissociation constant (Kd) lay within 0.2 to 1 nM. The figure for `CNC(=O)c1cnc(Nc2ccn(C)n2)c2[nH]c(-c3cccc(-c4cnn(C)c4)c3F)cc12` [Compound I-97, 2-(2-fluoro-3-(1-methyl-1H-pyrazol-4-yl)phenyl)-N-methyl-7-((1-methyl-1H-pyrazol-3-yl)amino)-1H-pyrrolo[2,3-c]pyridine-4-carboxamide] is under 0.2 nM; for `CNC(=O)c1cnc(NC(=O)C2CC2)c2[nH]c(-c3cccc(-c4nnn(C)n4)c3OC)cc12` [Compound I-59, 7-(cyclopropanecarboxamido)-2-(2-methoxy-3-(2-methyl-2H-tetrazol-5-yl)phenyl)-N-methyl-1H-pyrrolo[2,3-c]pyridine-4-carboxamide] it is 0.2 to 1 nM.

In the case of `CNC(=O)c1cnc(NC(=O)C2CC2)c2[nH]c(-c3ccc(-c4cn(C)nn4)cc3OC)cc12` [Compound I-64, 7-(cyclopropanecarboxamido)-2-(2-methoxy-4-(1-methyl-1H-1,2,3-triazol-4-yl)phenyl)-N-methyl-1H-pyrrolo[2,3-c]pyridine-4-carboxamide], the dissociation constant Kd is over 10 nM. The molecule `CNC(=O)c1cnc(NC(=O)C2CC2)c2[nH]c(-c3cccc(N4CCC4)c3C#N)cc12` [Compound I-41, 2-(3-(azetidin-1-yl)-2-cyanophenyl)-7-(cyclopropanecarboxamido)-N-methyl-1H-pyrrolo[2,3-c]pyridine-4-carboxamide] had a dissociation constant Kd of 1 to 10 nM.

As to `CNC(=O)c1cnc(NC(=O)C2CC2)c2[nH]c(-c3ccc4nc(C)n(C)c4c3F)cc12` [Compound I-92, 7-(cyclopropanecarboxamido)-2-(7-fluoro-1,2-dimethyl-1H-benzo[d]imidazol-6-yl)-N-methyl-1H-pyrrolo[2,3-c]pyridine-4-carboxamide], the Kd is under 0.2 nM. The figure for `CNC(=O)c1cnc(NC(=O)C2CC2)c2[nH]c(-c3ccc(-c4nccs4)cc3OC)cc12` [Compound I-60, 7-(cyclopropanecarboxamido)-2-(2-methoxy-4-(thiazol-2-yl)phenyl)-N-methyl-1H-pyrrolo[2,3-c]pyridine-4-carboxamide] is under 0.2 nM; for `CNC(=O)c1cnc(NC(=O)C2CC2)c2[nH]c(-c3cccn(C4CCCOC4)c3=O)cc12` (stereo in doubt) [Compound I-56, (R)-7-(cyclopropanecarboxamido)-N-methyl-2-(2-oxo-1-(tetrahydro-2H-pyran-3-yl)-1,2-dihydropyridin-3-yl)-1H-pyrrolo[2,3-c]pyridine-4-carboxamide] it is 0.2 to 1 nM; for `CNC(=O)c1cnc(NC(=O)C2CC2)c2[nH]c(-c3ccc(C(=O)N4CC(F)(F)C4)cn3)cc12` [Compound I-53, 7-(cyclopropanecarboxamido)-2-(5-(3,3-difluoroazetidine-1-carbonyl)pyridin-2-yl)-N-methyl-1H-pyrrolo[2,3-c]pyridine-4-carboxamide] it is 0.2 to 1 nM. As for `CNC(=O)c1cnc(NC(=O)C2CC2)c2[nH]c(-c3c(F)cc(-c4nccn4C)cc3N3CC[C@@H](OC)C3)cc12` [Compound I-90, (R)-7-(cyclopropanecarboxamido)-2-(2-fluoro-6-(3-methoxypyrrolidin-1-yl)-4-(1-methyl-1H-imidazol-2-yl)phenyl)-N-methyl-1H-pyrrolo[2,3-c]pyridine-4-carboxamide], the Kd is under 0.2 nM. For the molecule `CNC(=O)c1cnc(NC(=O)C2CC2)c2[nH]c(-c3c(F)cc(-n4nccn4)cc3OC3CC3)cc12` [Compound I-82, 7-(cyclopropanecarboxamido)-2-(2-cyclopropoxy-6-fluoro-4-(2H-1,2,3-triazol-2-yl)phenyl)-N-methyl-1H-pyrrolo[2,3-c]pyridine-4-carboxamide], the Kd is over 10 nM. In turn, `CNC(=O)c1cnc(NC(=O)C2CC2)c2[nH]c(-c3ccc(C(=O)N4CC(F)(F)C4)cc3F)cc12` [Compound I-98, 7-(cyclopropanecarboxamido)-2-(4-(3,3-difluoroazetidine-1-carbonyl)-2-fluorophenyl)-N-methyl-1H-pyrrolo[2,3-c]pyridine-4-carboxamide] came in with a Kd of under 0.2 nM.

`CNC(=O)c1cnc(NC(=O)C2CC2)c2[nH]c(-c3c(F)cc(-c4nccn4C)cc3N3CCOCC3)cc12` [Compound I-86, 7-(cyclopropanecarboxamido)-2-(2-fluoro-4-(1-methyl-1H-imidazol-2-yl)-6-morpholinophenyl)-N-methyl-1H-pyrrolo[2,3-c]pyridine-4-carboxamide] gave a dissociation constant (Kd) of under 0.2 nM. The figure for `CNC(=O)c1cnc(NC(=O)C2CC2)c2[nH]c(-c3cnccc3OC3CC3)cc12` [Compound I-44, 7-(cyclopropanecarboxamido)-2-(4-cyclopropoxypyridin-3-yl)-N-methyl-1H-pyrrolo[2,3-c]pyridine-4-carboxamide] is under 0.2 nM; for `CNC(=O)c1cnc(NC(=O)C2CC2)c2[nH]c(N3CCCCC3)cc12` [Compound I-96, 7-(cyclopropanecarboxamido)-N-methyl-2-(piperidin-1-yl)-1H-pyrrolo[2,3-c]pyridine-4-carboxamide] it is over 10 nM. In turn, `CNC(=O)c1cnc(NC(=O)C2CC2)c2[nH]c(-c3ccc(OC[C@@H]4CCCO4)cc3F)cc12` [Compound I-88, (S)-7-(cyclopropanecarboxamido)-2-(2-fluoro-4-((tetrahydrofuran-2-yl)methoxy)phenyl)-N-methyl-1H-pyrrolo[2,3-c]pyridine-4-carboxamide] displayed a dissociation constant Kd of under 0.2 nM.

On to `CNC(=O)c1cnc(NC(=O)C2CC2)c2[nH]c(-c3cccc(C4=NC(C)(C)CO4)c3F)cc12` [Compound I-87, 7-(cyclopropanecarboxamido)-2-(3-(4,4-dimethyl-4,5-dihydrooxazol-2-yl)-2-fluorophenyl)-N-methyl-1H-pyrrolo[2,3-c]pyridine-4-carboxamide], for which the Kd is under 0.2 nM.

Take `CNC(=O)c1cnc(NC(=O)C2CC2)c2[nH]c(-c3cccc(-n4cnc(C)n4)c3F)cc12` [Compound I-47, 7-(cyclopropanecarboxamido)-2-(2-fluoro-3-(3-methyl-1H-1,2,4-triazol-1-yl)phenyl)-N-methyl-1H-pyrrolo[2,3-c]pyridine-4-carboxamide]: the Kd is under 0.2 nM.

`CNC(=O)c1cnc(NC(=O)C2CC2)c2[nH]c(-c3cccc(-c4nnn(C)n4)c3)cc12` [Compound I-50, 7-(cyclopropanecarboxamido)-N-methyl-2-(3-(2-methyl-2H-tetrazol-5-yl)phenyl)-1H-pyrrolo[2,3-c]pyridine-4-carboxamide] gave a Kd of 0.2 to 1 nM.

Regarding `CNC(=O)c1cnc(NC(=O)C2CC2)c2[nH]c(-c3cccc(OC4CCOCC4)c3F)cc12` [Compound I-85, 7-(cyclopropanecarboxamido)-2-(2-fluoro-3-((tetrahydro-2H-pyran-4-yl)oxy)phenyl)-N-methyl-1H-pyrrolo[2,3-c]pyridine-4-carboxamide], the Kd was 0.2 to 1 nM.
